In the supplement of paper PMC10307832:

Assays:
Assay in all cases: relative viability (nuclei count vs DMSO), 5 days (fraction); higher = more cells survive
Crenolanib + Palbociclib = compound: CC1(COc2ccc3c(c2)ncn3-c2ccc3cccc(N4CCC(N)CC4)c3n2)COC1 [Crenolanib] + CC(=O)c1c(C)c2cnc(Nc3ccc(N4CCNCC4)cn3)nc2n(C2CCCC2)c1=O [Palbociclib] (partner 0.5 µM)
Procedure, shortened: (§1)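 Lung cancer cell lines were seeded in 1536-well plates and dosed by pin tool the next day, with either a single drug or a fixed anchor-drug dose combined with five library-drug doses (not always all listed) spaced in √10 steps. Five days later, one step fixed the cells and stained their nuclei (final 0.05% Triton X-100, 1% formaldehyde, 1 ug/ml Hoechst), and nuclei were counted on 4× images. Relative viability is the nuclei count in treated wells divided by the count in vehicle wells, and each value is the median of duplicate plates.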

Crenolanib + Pemetrexed = compound: CC1(COc2ccc3c(c2)ncn3-c2ccc3cccc(N4CCC(N)CC4)c3n2)COC1 [Crenolanib] + Nc1nc2[nH]cc(CCc3ccc(C(=O)N[C@@H](CCC(=O)O)C(=O)O)cc3)c2c(=O)[nH]1 [Pemetrexed] (partner 0.2 µM)
Procedure, shortened: as §1

Tivantinib + Alpelisib = compound: O=C1NC(=O)[C@@H](c2cn3c4c(cccc24)CCC3)[C@@H]1c1c[nH]c2ccccc12 [Tivantinib] + Cc1nc(NC(=O)N2CCC[C@H]2C(N)=O)sc1-c1ccnc(C(C)(C)C(F)(F)F)c1 [Alpelisib] (partner 2 µM)
Procedure, shortened: as §1

Tivantinib + Decitabine = compound: O=C1NC(=O)[C@@H](c2cn3c4c(cccc24)CCC3)[C@@H]1c1c[nH]c2ccccc12 [Tivantinib] + Nc1ncn([C@H]2C[C@H](O)[C@@H](CO)O2)c(=O)n1 [Decitabine] (partner 2 µM)
Procedure, shortened: as §1

| Cell Line | relative viability (Crenolanib + Palbociclib; first compound 0.01 µM) | relative viability (Crenolanib + Palbociclib; first compound 0.03162 µM) | relative viability (Crenolanib + Palbociclib; first compound 0.1 µM) | relative viability (Crenolanib + Palbociclib; first compound 0.3162 µM) | relative viability (Crenolanib + Palbociclib; first compound 1 µM) | relative viability (Crenolanib + Pemetrexed; first compound 0.01 µM) | relative viability (Crenolanib + Pemetrexed; first compound 0.03162 µM) | relative viability (Crenolanib + Pemetrexed; first compound 0.1 µM) | relative viability (Crenolanib + Pemetrexed; first compound 0.3162 µM) | relative viability (Crenolanib + Pemetrexed; first compound 1 µM) | relative viability (Tivantinib + Alpelisib; first compound 0.01 µM) | relative viability (Tivantinib + Alpelisib; first compound 0.03162 µM) | relative viability (Tivantinib + Alpelisib; first compound 0.1 µM) | relative viability (Tivantinib + Alpelisib; first compound 0.3162 µM) | relative viability (Tivantinib + Decitabine; first compound 0.01 µM) | relative viability (Tivantinib + Decitabine; first compound 0.03162 µM) | relative viability (Tivantinib + Decitabine; first compound 0.1 µM) | relative viability (Tivantinib + Decitabine; first compound 0.3162 µM) |
| --- | --- | --- | --- | --- | --- | --- | --- | --- | --- | --- | --- | --- | --- | --- | --- | --- | --- | --- |
| COR-L 105 | 0.435 | 0.467 | 0.436 | 0.379 | 0.417 | 1.25 | 1.09 | 1.09 | 1.14 | 1.1 | 1 | 0.921 | 0.783 | 0.95 | 0.641 | 0.662 | 0.589 | 0.596 |
| SK-LU-1 | 0.368 | 0.394 | 0.328 | 0.412 | 0.333 | 0.943 | 1.03 | 0.892 | 1.11 | 0.966 | 1.04 | 1.17 | 0.995 | 1.16 | 0.711 | 0.679 | 0.593 | 0.555 |
| PC-3 [JPC-3] | 0.563 |  | 0.543 | 0.534 | 0.568 | 1.11 |  | 1.01 | 1.21 | 0.889 | 0.993 | 1.06 | 1.05 | 0.775 | 0.766 | 0.798 | 0.839 | 0.6 |
| NCI-H661 | 0.433 | 0.416 | 0.424 | 0.408 | 0.43 | 0.959 | 0.903 | 0.925 | 0.966 | 0.979 | 0.404 | 0.86 | 0.72 |  | 0.565 | 0.542 | 0.558 | 0.398 |
| NCI-H2087 | 0.248 | 0.249 | 0.233 | 0.211 | 0.318 | 0.719 | 0.7 | 0.684 | 0.555 | 0.675 | 1 | 1.06 | 1.02 | 0.956 | 0.326 | 0.311 | 0.21 | 0.196 |
| NCI-H1755 | 0.466 | 0.443 | 0.46 | 0.454 | 0.473 | 0.468 | 0.43 | 0.416 | 0.499 | 0.453 | 0.918 | 0.936 | 0.886 | 0.902 | 0.727 | 0.67 | 0.725 | 0.765 |
| EMC-BAC-2 | 0.525 |  | 0.551 | 0.486 | 0.51 | 0.437 |  | 0.456 | 0.449 | 0.436 | 0.792 | 0.718 | 0.705 | 0.656 | 1.03 | 0.981 | 0.941 | 0.965 |
| NCI-H2009 | 0.219 | 0.22 | 0.251 | 0.186 | 0.19 | 1 | 1.06 | 1.07 | 0.966 | 0.847 | 1.15 | 1.21 | 1.12 | 1.14 | 0.361 | 0.365 | 0.328 | 0.391 |
| NCI-H650 | 0.308 | 0.346 | 0.33 | 0.32 | 0.355 | 1.03 | 1.01 | 0.93 | 0.932 | 0.918 | 1.24 |  | 0.956 | 1.02 | 0.355 | 0.287 | 0.315 | 0.327 |
| NCI-H1915 | 0.513 | 0.57 | 0.507 | 0.522 | 0.389 | 0.536 | 0.481 | 0.511 | 0.528 | 0.531 | 1.07 | 1.01 | 1.09 | 1.04 | 0.279 | 0.248 | 0.263 | 0.254 |
| SW 1573 | 0.369 | 0.458 | 0.422 | 0.368 | 0.42 | 0.784 | 0.801 | 0.719 | 0.942 | 0.832 | 0.941 | 0.738 | 0.741 | 0.716 | 0.688 | 0.462 | 0.446 | 0.494 |
| NCI-H1355 | 0.405 | 0.457 | 0.4 | 0.472 | 0.351 | 1.07 | 1.12 | 0.947 | 1.13 | 1.01 | 0.852 | 0.839 | 0.877 | 0.751 | 0.377 | 0.316 | 0.342 | 0.381 |
| NCI-H1651 | 0.531 | 0.518 | 0.516 | 0.522 | 0.495 | 0.573 | 0.599 | 0.592 | 0.566 | 0.62 | 1.04 | 0.856 | 1.01 | 0.915 | 0.592 | 0.659 | 0.608 | 0.583 |
| NCI-H2023 | 0.358 | 0.373 | 0.386 | 0.434 | 0.335 | 0.206 | 0.238 | 0.231 | 0.239 | 0.234 | 0.549 | 0.642 | 0.5 | 0.492 | 0.24 | 0.218 | 0.212 | 0.221 |
| LU99A | 0.411 | 0.453 | 0.4 | 0.432 | 0.441 | 0.22 | 0.204 | 0.151 | 0.197 | 0.198 | 0.477 | 0.477 | 0.453 | 0.369 | 0.869 | 0.853 | 0.865 | 0.849 |
| NCI-H3122 | 0.177 | 0.193 | 0.196 | 0.196 | 0.206 | 0.205 | 0.212 | 0.203 | 0.203 | 0.18 | 0.731 | 0.849 | 0.803 | 0.807 | 0.434 | 0.484 | 0.398 | 0.434 |
| LOU-NH91 | 0.524 | 0.481 | 0.518 | 0.539 | 0.548 | 0.399 | 0.45 | 0.353 | 0.423 | 0.383 | 0.663 | 0.695 | 0.742 | 0.533 | 0.825 | 0.805 | 0.803 | 0.669 |
| NCI-H647 | 0.401 | 0.341 | 0.434 | 0.363 | 0.51 | 0.202 | 0.19 | 0.201 | 0.209 | 0.217 | 1.15 | 1.16 | 1.09 | 1.14 | 0.437 | 0.305 | 0.381 | 0.357 |
| NCI-H838 | 0.244 | 0.232 | 0.21 | 0.232 | 0.205 | 0.247 | 0.253 | 0.258 | 0.264 | 0.281 | 0.915 | 1.06 | 0.973 | 0.953 | 0.446 | 0.48 | 0.428 | 0.442 |
| HARA | 0.298 | 0.219 | 0.272 | 0.242 | 0.294 | 0.3 | 0.231 | 0.224 | 0.225 | 0.236 | 0.962 | 0.737 | 0.827 | 0.431 | 0.457 | 0.61 | 0.469 | 0.543 |
| SK-MES-1 | 0.335 | 0.32 | 0.31 | 0.314 | 0.34 | 1.06 | 0.964 | 0.886 | 0.967 | 0.929 | 0.912 | 0.867 | 0.929 | 0.444 | 0.299 | 0.351 |  | 0.337 |
| LXF-289 | 0.628 | 0.595 | 0.62 | 0.648 | 0.618 | 0.853 | 0.905 | 0.865 | 0.922 | 0.897 | 1.06 | 1.01 | 1.03 | 1.04 | 0.37 | 0.375 | 0.367 | 0.367 |
| HOP-62 | 0.457 | 0.45 | 0.461 | 0.497 | 0.481 | 0.322 | 0.345 | 0.373 | 0.362 | 0.417 | 1.04 |  | 0.648 | 0.923 | 0.173 | 0.191 | 0.196 | 0.242 |
| LK-2 | 0.667 | 0.532 | 0.88 | 0.734 | 1.06 | 0.314 | 0.268 | 0.263 | 0.27 | 0.274 | 1.24 |  | 0.58 | 0.668 | 0.233 | 0.196 | 0.262 | 0.29 |
| HCC-44 | 1.02 | 0.897 | 0.939 | 0.994 | 0.921 | 0.639 | 0.662 | 0.707 | 0.632 | 0.642 | 0.844 | 0.703 | 0.858 | 0.793 | 0.988 | 0.987 | 0.971 | 1.09 |
| BEN | 0.464 | 0.482 | 0.48 | 0.524 | 0.497 | 0.784 | 0.637 | 0.677 | 0.752 | 0.774 | 1.02 | 0.837 | 0.893 | 0.735 | 0.755 | 0.69 | 0.631 | 0.796 |
| NCI-H2347 | 0.458 | 0.453 | 0.395 | 0.435 | 0.481 | 0.4 | 0.425 | 0.397 | 0.447 | 0.436 | 1.16 | 0.959 | 1.06 | 1.01 | 0.699 | 0.592 | 0.623 | 0.629 |
| NCI-H1395 | 0.622 | 0.628 | 0.677 | 0.635 | 0.628 | 0.88 | 0.768 | 0.924 | 0.831 | 0.864 | 1.18 | 1.23 | 1 | 0.878 | 0.736 | 0.665 | 0.845 | 0.713 |
| 201T | 0.363 | 0.349 | 0.341 | 0.37 | 0.337 | 0.324 | 0.323 | 0.34 | 0.322 | 0.338 | 0.982 | 1 | 0.999 | 0.981 | 0.829 | 0.861 | 0.839 | 0.81 |
| NCI-H2170 | 0.384 | 0.432 | 0.38 | 0.422 | 0.417 | 0.366 | 0.266 | 0.276 | 0.286 | 0.271 | 0.806 | 0.852 | 0.674 |  | 0.47 | 0.48 | 0.486 |  |
